Assays:
BCL-2 = BCL-2 (Homo sapiens (Human), UniProt P10415); assay: BCL-2 TR-FRET Assay (primary PPI inhibition); assay type: binding; conditions: 60 min incubation, read-out: BCL2 IC50
Procedure: Example A. BCL-2 TR-FRET Assay (BPS Bioscience, #50222)
(§1) The following assay concentrations and times were used: 3 ng of BCL-2, 5 μL of 1:100 anti-His Tb-labeled donor, 5 μL of 1:100 Dye-labeled acceptor, 5 µL of 1:40 BCL-2 Peptide Ligand, and 2 μL of 200× test compound, with 60 min incubation time (final concentration of DMSO 0.5%). The results of the assay were read using a plate reader with the following parameters: TR FRET, 340ex/620 and 665em; 60 usec Delay; and 500 usec integration.
(§2) Instrumentation: CLARIOstar Plus (BMG LABTECH); Biomek FX for liquid handling (Beckman Coulter).

BCL-xL = BCL-xL (Homo sapiens (Human), UniProt Q07817); assay: BCL-xL TR-FRET Assay (primary PPI inhibition); assay type: binding; conditions: 60 min incubation, read-out: BCLxL IC50
BCL-xL, sequence (Q07817 whole entry): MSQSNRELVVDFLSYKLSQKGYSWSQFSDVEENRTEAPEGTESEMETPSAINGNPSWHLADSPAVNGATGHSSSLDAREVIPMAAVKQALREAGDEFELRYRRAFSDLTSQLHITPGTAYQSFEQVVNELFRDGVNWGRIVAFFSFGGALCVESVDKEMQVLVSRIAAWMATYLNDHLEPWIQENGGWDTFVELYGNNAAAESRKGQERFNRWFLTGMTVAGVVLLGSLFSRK
Procedure: Example B. BCL-xL TR-FRET Assay (BPS Bioscience, #50223)
as §1, with “used: 10.5” for “used: 3”, “of BCL-xL,” for “of BCL-2,”, “of 1:120” for “of 1:100”, “5 μL” for “5 µL”, “of 1:96 BCL-xL” for “of 1:40 BCL-2”, “Ligand,” for “Ligand, and”
as §2

RS4-11 cells = assay: Cell viability assay (CellTiter-Glo), RS4-11; assay type: cell-based; conditions: Homo sapiens, RS4-11, 72 h, 3 days of incubation
Procedure: (§3) Example D. Cell Viability Assays (Cell lines HEK293, RS4-11, MOLT-4)
(§4) Cells were seeded at a density of 4000 cells per well in the 384-well clear bottom plate (Greiner Cat #781090) to the 45 μL total volume of either DMEM (PanEco, Cat #C420, for HEK293) or RPMI (PanEco, Cat #C330, for other cell lines) with 10% FBS(HyClone Cat #SV30160.03). Prior to adding compounds, the HEK293 cells were allowed to adhere overnight at 37° C. and 5% CO2. The 500× compounds solutions in DMSO(Sigma Cat #D2650) were dispersed into a 384-well compound plate (Diamond Well Plate, Axigen, Cat #P-384-120 SQ-C—S) including only DMSO control. The 1 μL aliquots of the 500× compounds from the compound plate were added to 49 μL of culture medium in the Dilution plate (Diamond Well Plate, Axigen, Cat #P-384-120 SQ-C—S), mixed and then the 5 μL aliquts of the 10× compound solutions were transferred to cells followed by centrifugation at 100 g for 1 min. Final DMSO concentration was 0.2%. After 3 days of incubation the 10 μL aliquots of CellTiter-Glo (Promega, CAT #G7572) were added to the cells, plate was centrifuged at 100 g for 1 min and the luminescence was measured on the CLARIOstar Plus (BMG LABTECH) instrument.
as §2

[1] = Cell viability assay (CellTiter-Glo), HEK293; assay type: cell-based; conditions: human, HEK293 cells, 3 days of incubation
Procedure: as §3, §4, §2

MOLT-4 cells = assay: Cell viability assay (CellTiter-Glo), MOLT-4; assay type: cell-based; conditions: Homo sapiens, 72 h, 3 days of incubation
Procedure: as §3, §4, §2

[2] = tested on: caspase-3 and -7 activities in RS4-11 cells; assay: Caspase-3/7 activation (Caspase-Glo 3/7) in RS4-11 cells; assay type: cell-based; conditions: Homo sapiens, 3.5 h, read-out: Cas-3/7 EC50
Procedure: Example E. Caspase-3/7 Activation
Assay Principle: The Caspase-Glo 3/7 Assay is homogeneous, luminescent assay that measures caspase-3 and -7 activities. The assay provides a luminogenic caspase-3/7 substrate, which contains the tetrapeptide sequence DEVD, in a reagent optimized for caspase activity.
Assay Procedure: Incubate RS4-11 (ATCC, CRL-1873) cells in the 384-well white plate (Corning, #3570) with varying concentrations of test compounds for 3.5 h in a humidified incubator at 37° C. and 5% CO2 […]. Add 15 μL of the Caspase-Glo (Promega, #8212) reagent to each well and to incubate the plate for 30 min at rt. Read on the CLARIOstar Plus (BMG LABTECH) instrument.
as §2

BCL-2, sequence (P10415 whole entry): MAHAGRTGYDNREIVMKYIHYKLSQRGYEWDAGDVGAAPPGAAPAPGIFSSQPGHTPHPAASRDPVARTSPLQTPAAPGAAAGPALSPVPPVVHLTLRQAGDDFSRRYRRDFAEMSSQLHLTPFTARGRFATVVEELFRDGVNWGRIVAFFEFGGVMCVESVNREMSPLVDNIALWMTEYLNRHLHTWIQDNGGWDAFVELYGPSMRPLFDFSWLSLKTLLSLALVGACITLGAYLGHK

| SMILES | IC50 (BCL-2) [nM] | IC50 (BCL-xL) [µM] | CC50 (RS4-11 cells) [nM] | CC50 at 3 days [1] [µM] | CC50 (MOLT-4 cells) [µM] | EC50 [2] [nM] |
| --- | --- | --- | --- | --- | --- | --- |
| COc1cccc(CN(C(=O)c2cc(-c3cc(Cl)c(OC(F)F)cc3C(=O)N3Cc4ccccc4C[C@H]3CN3CCOCC3)n(C)c2C)c2ccc(Cl)cc2)c1C [Compound 32, 5-[5-chloro-4-(difluoromethoxy)-2-[(3S)-3-(morpholinomethyl)-3,4-dihydro-1H-isoquinoline-2-carbonyl]phenyl]-N-(4-chlorophenyl)-N-[(3-methoxy-2-methyl-phenyl)methyl]-1,2-dimethyl-pyrrole-3-carboxamide] | > 50 | 2 to 5 | > 200 | > 25 | ≤ 5 | > 500 |
| Cc1c(C(=O)N(Cc2ccccc2C#N)c2ccc(O)cc2)cc(-c2cc([N+](=O)[O-])ccc2C(=O)N2Cc3ccccc3C[C@H]2CN2CCOCC2)n1C [Compound 62, N-[(2-cyanophenyl)methyl]-N-(4-hydroxyphenyl)-1,2-dimethyl-5-[2-[(3S)-3-(morpholinomethyl)-3,4-dihydro-1H-isoquinoline-2-carbonyl]-5-nitro-phenyl]pyrrole-3-carboxamide] | ≤ 5 | > 5 | ≤ 100 | > 25 | ≤ 5 | ≤ 200 |
| COc1cccc(CN(C(=O)c2cc(-c3cc([N+](=O)[O-])ccc3C(=O)N3Cc4ccccc4C[C@H]3CN3CCOCC3)n(C)c2C)c2ccc(O)cc2)c1C [Compound 61, N-(4-hydroxyphenyl)-N-[(3-methoxy-2-methyl-phenyl)methyl]-1,2-dimethyl-5-[2-[(3S)-3-(morpholinomethyl)-3,4-dihydro-1H-isoquinoline-2-carbonyl]-5-nitro-phenyl]pyrrole-3-carboxamide] | ≤ 5 | > 5 | ≤ 100 | > 25 | ≤ 5 | 200 to 500 |
| COc1cc(-c2cc(C(=O)N(Cc3ccccc3OC)c3ccc(Cl)cc3)c(C)n2C)c(C(=O)N2Cc3ccccc3C[C@H]2CN2CCOCC2)cc1C#N [Compound 56, N-(4-chlorophenyl)-5-[4-cyano-5-methoxy-2-[(3S)-3-(morpholinomethyl)-3,4-dihydro-1H-isoquinoline-2-carbonyl]phenyl]-N-[(2-methoxyphenyl)methyl]-1,2-dimethyl-pyrrole-3-carboxamide] | > 50 | 2 to 5 | > 200 | ≤ 10 | ≤ 5 | > 500 |
| COc1cccc(CN(C(=O)c2cc(-c3cc(C(F)F)c(Cl)cc3C(=O)N3Cc4ccccc4C[C@H]3CN3CCOCC3)n(C)c2C)c2ccc(Cl)cc2)c1C [Compound 39, 5-[4-chloro-5-(difluoromethyl)-2-[(3S)-3-(morpholinomethyl)-3,4-dihydro-1H-isoquinoline-2-carbonyl]phenyl]-N-(4-chlorophenyl)-N-[(3-methoxy-2-methyl-phenyl)methyl]-1,2-dimethyl-pyrrole-3-carboxamide] | > 50 | 2 to 5 | > 200 | > 25 | ≤ 5 | > 500 |
| Cc1c(C(=O)N(Cc2ccccc2C#N)c2ccc(O)cc2)cc(-c2cc(F)c(F)cc2C(=O)N2Cc3ccccc3C[C@H]2CN2CCOCC2)n1C [Compound 53, N-[(2-cyanophenyl)methyl]-5-[4,5-difluoro-2-[(3S)-3-(morpholinomethyl)-3,4-dihydro-1H-isoquinoline-2-carbonyl]phenyl]-N-(4-hydroxyphenyl)-1,2-dimethyl-pyrrole-3-carboxamide] | 10 to 50 | 2 to 5 | 100 to 200 | > 25 | 5 to 10 | 200 to 500 |
| COc1cccc(CN(C(=O)c2cc(-c3ccc(OC(F)F)cc3C(=O)N3Cc4ccccc4C[C@H]3CN3CCOCC3)n(C)c2C)c2ccc(Cl)cc2)c1C [Compound 12, N-(4-chlorophenyl)-5-[4-(difluoromethoxy)-2-[(3S)-3-(morpholinomethyl)-3,4-dihydro-1H-isoquinoline-2-carbonyl]phenyl]-N-[(3-methoxy-2-methyl-phenyl)methyl]-1,2-dimethyl-pyrrole-3-carboxamide] | > 50 | 2 to 5 | > 200 | > 25 | ≤ 5 | > 500 |
| COc1cccc(CN(C(=O)c2cc(-c3cc(C#N)ccc3C(=O)N3Cc4ccccc4C[C@H]3CN3CCOCC3)n(C)c2C)c2ccc(O)cc2)c1C [Compound 57, 5-[5-cyano-2-[(3S)-3-(morpholinomethyl)-3,4-dihydro-1H-isoquinoline-2-carbonyl]phenyl]-N-(4-hydroxyphenyl)-N-[(3-methoxy-2-methyl-phenyl)methyl]-1,2-dimethyl-pyrrole-3-carboxamide] | 5 to 10 | 2 to 5 | ≤ 100 | > 25 | ≤ 5 | ≤ 200 |
| COc1ccccc1CN(C(=O)c1cc(-c2cc(C#N)ccc2C(=O)N2Cc3ccccc3C[C@H]2CN2CCOCC2)n(C)c1C)c1ccc(O)cc1 [Compound 55, 5-[5-cyano-2-[(3S)-3-(morpholinomethyl)-3,4-dihydro-1H-isoquinoline-2-carbonyl]phenyl]-N-(4-hydroxyphenyl)-N-[(2-methoxyphenyl)methyl]-1,2-dimethyl-pyrrole-3-carboxamide] | 5 to 10 | ≤ 2 | 100 to 200 | > 25 | ≤ 5 | 200 to 500 |
| COc1cccc(CN(C(=O)c2cc(-c3cc(C(N)=O)ccc3C(=O)N3Cc4ccccc4C[C@H]3CN3CCOCC3)n(C)c2C)c2ccc(O)cc2)c1C [Compound 64, 5-[5-carbamoyl-2-[(3S)-3-(morpholinomethyl)-3,4-dihydro-1H-isoquinoline-2-carbonyl]phenyl]-N-(4-hydroxyphenyl)-N-[(3-methoxy-2-methyl-phenyl)methyl]-1,2-dimethyl-pyrrole-3-carboxamide] | ≤ 5 | > 5 | ≤ 100 | > 25 | > 10 | > 500 |
| COc1cccc(CN(C(=O)c2cc(-c3cc(Cl)c(F)cc3C(=O)N3Cc4ccccc4C[C@H]3CN3CCOCC3)n(C)c2C)c2ccc(O)cc2)c1C [Compound 27, 5-[5-chloro-4-fluoro-2-[(3S)-3-(morpholinomethyl)-3,4-dihydro-1H-isoquinoline-2-carbonyl]phenyl]-N-(4-hydroxyphenyl)-N-[(3-methoxy-2-methyl-phenyl)methyl]-1,2-dimethyl-pyrrole-3-carboxamide] | 10 to 50 | 2 to 5 | 100 to 200 | > 25 | ≤ 5 | 200 to 500 |
| COc1ccccc1CN(C(=O)c1cc(-c2cc(OC)c(C(N)=O)cc2C(=O)N2Cc3ccccc3C[C@H]2CN2CCOCC2)n(C)c1C)c1ccc(Cl)cc1 [Compound 63, 5-[4-carbamoyl-5-methoxy-2-[(3S)-3-(morpholinomethyl)-3,4-dihydro-1H-isoquinoline-2-carbonyl]phenyl]-N-(4-chlorophenyl)-N-[(2-methoxyphenyl)methyl]-1,2-dimethyl-pyrrole-3-carboxamide] | 10 to 50 | – | 100 to 200 | 10 to 25 | ≤ 5 | > 500 |

— US20250115577A1, “BCL-2 Inhibitors” (Eil Therapeutics, Inc., priority 2021, published 2025)
